Structures are written as SMILES.

The test system of one series is PDE4. Nature of the series: Inhibition of PDE4 activity (method of Bauer and Schwabe, adapted to microtiter plates). In kind it is biochemical. Conditions: inhibitory concentration as -log IC50 (mol/l). How it is done:
The activity test was carried out according to the method of Bauer and Schwabe, which was adapted to microtiter plates (Naunyn-Schmiedeberg's Arch. Pharmacol. 1980, 311, 193-198). In this test, the PDE reaction takes place in the first step. In a second step, the resulting 5′-nucleotide is cleaved by a 5′-nucleotidase of the snake venom from Crotalus atrox to give the uncharged nucleoside. In the third step, the nucleoside is separated from the remaining charged substrate on ion-exchange columns. The columns are eluted directly into minivials to which 2 ml of scintillator fluid is additionally added for counting […].
The inhibitory values determined for the compounds according to the invention [inhibitory concentration as -log IC50 (mol/l)] results from the following Table A, in which the numbers of the compounds correspond to the numbers of the examples.

One may read the melting point as the temperature, or range, at which the solid turns liquid. `COc1ccc(C2(C#N)CCOCC2)c2nc(C)oc12` [Compound 1, 4a-Cyano-4e-(2-methyl-7-methoxybenzoxazol-4-yl)tetrahydropyran] registered a melting point of 72 °C. Moreover, the “Inhibition of the PDE4 activity, -log IC50” value (“Inhibition … -log IC50” below) in the series on PDE4 was found to be 6.87 mol/l.
The matching figures for `COc1ccc(C2(C#N)CCOCC2)c2nc(C(C)C)oc12` [Compound 2, 4a-Cyano-4e-(2-isopropyl-7-methoxybenzoxazol-4-yl)-tetrahydropyran]: 156.5 °C and 7.86 mol/l.
The matching figures for `COc1ccc(C2(C#N)CCC(=O)CC2)c2nc(C(C)C)oc12` [Compound 3, 4-Cyano-4-(2-isopropyl-7-methoxybenzoxazol-4-yl)cyclohexanone]: 118 °C and 6.96 mol/l.
The matching figures for `COc1ccc(C2(C#N)CCC(O)CC2)c2nc(C(C)C)oc12` (stereo not drawn) [Compound 4, cis-4-Cyano-4-(2-isopropyl-7-methoxybenzoxazol-4-yl)cyclohexan-1-ol]: 116.5 °C and 7.77 mol/l.
As for `COC(=O)C1CCC(C#N)(c2ccc(OC)c3oc(C(C)C)nc23)CC1` (stereo not drawn) [Compound 5, Methyl cis-4-cyano-(2-isopropyl-7-methoxybenzoxazol-4-yl)cyclohexane-1-carboxylate], the melting point worked out at 83 °C. Also, in the series with PDE4, the “Inhibition … -log IC50” value amounted to 6.46 mol/l.
The compound `COc1ccc(C2(C#N)CCC(C(=O)O)CC2)c2nc(C(C)C)oc12` (stereo not drawn) [Compound 6, cis-4-Cyano-4-(2-isopropyl-7-methoxybenzoxazol-4-yl)cyclohexane-1-carboxylic acid] registered a melting point of 217.5 °C. In the series on PDE4, the “Inhibition … -log IC50” value turned out to be 7.69 mol/l.
The matching figures for `COc1ccc(C2(C#N)CCC(C(N)=O)CC2)c2nc(C(C)C)oc12` (stereo not drawn) [Compound 7, Cis-4-Cyano-4-(2-isopropyl-7-methoxybenzoxazol-4-yl)cyclohexane-1-carboxamide]: 228 °C and 7.65 mol/l.

(Values after patent US6376485B1, “Benzoxazoles with PDE-inhibiting activity” (Byk Gulden Lomberg Chemische Fabrik GmbH, priority 1998, dated 2002).)
